From patent publication US20230035606A1, “AN ACCURATE AND COMPREHENSIVE CARDIAC TROPONIN I ASSAY ENABLED BY NANOTECHNOLOGY AND PROTEOMICS” (Wisconsin Alumni Research Foundation, priority 2019, published 2023)
Side chains are listed from the residue outwards. Ends that are not written are not given here. BAPTES = N-(3-(triethoxysilyl)propyl)buta-2,3-dienamide; Fe3O4 nanoparticle = not defined here

Tests used:
cTnI = cTnI (Homo sapiens, UniProt P19429); conditions: peptide evolved by phage display and in silico evolution; targets cTnI residues 114-144; read-out: binding affinity (Kd); cited from earlier work
cTnI, sequence (P19429 whole entry, the tested form may be a part): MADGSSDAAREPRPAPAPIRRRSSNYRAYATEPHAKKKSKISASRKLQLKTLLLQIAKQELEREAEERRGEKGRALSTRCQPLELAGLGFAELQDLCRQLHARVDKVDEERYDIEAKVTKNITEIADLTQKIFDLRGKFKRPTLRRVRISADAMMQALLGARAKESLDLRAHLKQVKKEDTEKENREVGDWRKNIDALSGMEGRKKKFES

[1] = biological target: T1, human serum albumin (HSA) (human, UniProt P02768 25-609); experiment: nanoparticle pull-down from human serum (10 mg) spiked with cTnI, SDS-PAGE and top-down LC/MS
T1 construct: mature; also called C-HSA; C-C-HSA
T1 sequence (P02768 25-609): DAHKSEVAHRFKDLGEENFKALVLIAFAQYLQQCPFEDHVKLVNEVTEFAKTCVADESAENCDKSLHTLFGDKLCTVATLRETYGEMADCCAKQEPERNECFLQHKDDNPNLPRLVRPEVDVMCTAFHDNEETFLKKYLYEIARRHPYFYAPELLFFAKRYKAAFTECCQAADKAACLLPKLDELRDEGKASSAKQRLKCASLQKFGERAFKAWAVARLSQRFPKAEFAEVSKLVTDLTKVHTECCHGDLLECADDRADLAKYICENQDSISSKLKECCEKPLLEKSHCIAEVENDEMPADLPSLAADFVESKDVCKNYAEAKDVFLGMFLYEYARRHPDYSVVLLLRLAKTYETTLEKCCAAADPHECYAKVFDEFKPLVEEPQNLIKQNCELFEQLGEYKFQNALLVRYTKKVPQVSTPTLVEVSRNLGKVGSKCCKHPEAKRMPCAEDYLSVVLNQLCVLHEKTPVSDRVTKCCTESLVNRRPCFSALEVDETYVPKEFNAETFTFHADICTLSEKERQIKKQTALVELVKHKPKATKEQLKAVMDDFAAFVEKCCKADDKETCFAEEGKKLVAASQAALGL
Experimental: To this end, cTnI enrichment was performed from human serum spiked-in with the cTnI extracted from the same donor, DCM, and post-mortem heart samples as in FIGS. 4-6. The endogenous cTnI obtained from the different human heart samples were used as the reference cTnI sources and served to mimic cTnI found in the blood.
Comparison of the cTnI enrichment performance of the NP-Pep platform against the agarose-mAb or agarose-Pep platform from human serum spiked with cTnI. The enrichment workflow was performed in a cold room held at 4° C. to minimize possible artifactual protein modifications, such as oxidation. NP-Control (NP-BAPTES),NP-Pep (Fe₃O₄-BAPTES-Peptide), Agarose-Control beads (no coupling), Agarose-Pep beads, and Agarose-mAb beads were incubated with in a protein loading mixture containing human male AB serum (10 mg) and sarcomeric tissue extract obtained from healthy donor heart tissue, diseased heart tissue of DCM, and post-mortem heart tissue containing 306 ng cTnI, 482 ng cTnI, and 465 ng cTnI in the protein extract, respectively. cTnI values were determined by ELISA quantification as previously described. The loading mixture (L), flow through (F), and elution mixture (E) were collected, desalted using a 10 kDa MWCO, and buffer exchanged prior to SDS-PAGE gel analysis or LC-MS analysis as described in the tissue enrichment protocol.

For HWQIAYNEHQWQ, the Kd (cTnI) is listed as 0.27 nM.

B1: Fe3O4-BAPTES-Peptide NPs (NP-Pep): high affinity cTnI-binding peptide HWQIAYNEHQWQC on BAPTES-silanized Fe3O4 nanoparticles (peptide)
peptide: HWQIAYNEHQWQC([BAPTES-Fe3O4 nanoparticle])
modifications: not fully specified; reading uncertain
notes: Synthetic peptide (GenScript) found by phage display and in silico evolution (literature); Many copies on each nanoparticle (about 1.5 peptide/nm^2 in the text); In the assay it stood on the particle, not free; also called NP-Peptide; Fe3O4-Peptide NPs
B1: no binding [1].
